These results are taken from article PMC3584109, “Protective Effect of Borage Seed Oil and Gamma Linolenic Acid on DNA: In Vivo and In Vitro Studies” (PLoS ONE, 2013).

Data set [1] has as its system D. melanogaster. The data set is described as follows: Toxicity assay: survival of adults from treated 72 h old larvae. Type of data set: in vivo, Drosophila melanogaster. As to conditions: for average toxicities (survival): average over tested concentrations.
Experimental: Crosses were performed with optimally fertile virgin females of the flr3/TM3, Bd^s strain and mwh/mwh males. After 8 h egg-laying, 72±3 h old larvae were washed in distilled water, transferred to fresh vials with 0.85 g Drosophila Instant Medium (formula 4–24, Carolina Biological Supply, Burlington NC, USA) which were wetted with 4 ml after of put solutions of increasing concentrations of the borage seed oil and GLA. […] Taking into account the average daily food intake of D. melanogaster (1 mg/day) and the average body weight of D. melanogaster individuals (1 mg), the concentration range for both borage seed oil and GLA were calculate to fit them into the recommended fat daily intake for humans (60 g of total fat/day for 60 kg human body weight). Emerging adults of all groups were counted and stored in 70% ethanol to be analysed. Procedures are: 1) Toxicity assays evaluated (number of individuals born in treatment/number of individuals born in the negative control)x100.
For data set [2], the system named is D. melanogaster. Particulars: in vivo. On the procedure:
(§1) Analysis of the genotoxic and antigenotoxic activities of borage seed oil and GLA, was evaluated by the Drosophila SMART test. Two different Drosophila melanogaster strains carrying visible wing genetic markers were used: the flare (flr) strain flr^3/ln (3LR) TM3, Bd^s and the multiple wing-hair (mwh) strain mwh/mwh. The marker multiple wing hairs (mwh, 3_0.3) is a recessive mutation that is viable in homozygous flies, producing multiple hairs per cell instead of the wild type single-hair trichome. The marker flare (flr^3, 3_38.3) is a recessive mutation which produces individual wing hairs that are malformed. The flr^3 allele is retained via a balancer chromosome carrying multiple inversions and a dominant marker which is homozygous lethal (TM3, Bd^S: Third Multiple 3, Beaded-Serrate). Additional information on genetic markers can be found in [31].
(§2) Crosses were performed with optimally fertile virgin females of the flr3/TM3, Bd^s strain and mwh/mwh males. After 8 h egg-laying, 72±3 h old larvae were washed in distilled water, transferred to fresh vials with 0.85 g Drosophila Instant Medium (formula 4–24, Carolina Biological Supply, Burlington NC, USA) which were wetted with 4 ml after of put solutions of increasing concentrations of the borage seed oil and GLA. Test groups consisting of 100 larvae each were: (i) negative control (distilled water); (ii) mutagenic positive control (hydrogen peroxide 0.12 M); (iii) 5 vials with increasing concentrations of borage seed oil (12.5, 18.7, 31.2, 62.5 and 125 µl/ml); and (iv) 5 vials with increasing concentrations of GLA (8.9, 13, 22, 45 and 90 mM). Taking into account the average daily food intake of D. melanogaster (1 mg/day) and the average body weight of D. melanogaster individuals (1 mg), the concentration range for both borage seed oil and GLA were calculate to fit them into the recommended fat daily intake for humans (60 g of total fat/day for 60 kg human body weight). Emerging adults of all groups were counted and stored in 70% ethanol to be analysed. Procedures are: 1) Toxicity assays evaluated (number of individuals born in treatment/number of individuals born in the negative control)x100. 2) Genotoxicity assays evaluated mutation rate diagnosis of different groups and 3) Antigenotoxicity testing, combined treatments were performed as previously described by Anter et al., 2011 [32], by using hydrogen peroxide 0.12 M as the genotoxicant and the concentrations of borage seed oil and GLA mentioned above in groups (iii) and (iv), evaluating mutation rate diagnosis of different treatments.
(§3) Marker-heterozygous genotypes (mwh/flr^3) were mounted on slides with Faurés solution. Both dorsal and ventral surfaces of the wings containing 22,000 cells were screened under a photonic microscope at 400× magnification for the occurrence of individual spots (mwh or flr phenotype) or twin spots (mwh clone adjacent to flr clone). […] Large individual spots with three or more cells showing mwh or flr phenotypes corresponded to mutational events occurring earlier during larvae development. Twin spots with two juxtaposed clones corresponded uniquely to recombination events between the flr^3 gene and the centromere.
(§4) For the evaluation of genotoxic effects, the frequencies of spots per fly of each treated series were compared to the concurrent negative control for each class of mutational clone. A multiple-decision procedure was used to categorize results as positive, weakly positive, inconclusive, or negative. Statistical analyses were carried out for single, large, twin and total number of spots recovered. Inconclusive and positive data were evaluated by the non-parametric U test of Mann, Whitney and Wilcoxon according to Frei and Würgler 1995 [36]. The inhibition percentage for each compound and treatment was calculated following Abraham, 1994 [37] (hydrogen peroxide alone - substance assayed + hydrogen peroxide / hydrogen peroxide alone) × 100.

For data set [3], the system named is D. melanogaster. Particulars: for % of inhibition: calculated according to Abraham (1994). On the procedure: as §1, §2, §3, §4
The next data set concerns HL60 cells. The data set is described as follows: Cytotoxicity assay, Trypan Blue dye exclusion. Type of data set: cell-based. Particulars: Homo sapiens, HL-60, 72 h, read-out: IC50 (concentration causing 50% inhibition of cell growth). On the procedure:
The human promyelocytic leukaemia cell line HL60 was obtained from Dr. José M. Villalba Montoro (Department of Cell Biology, Univ. Cordoba, Spain), [34]. HL60 cells were incubated in RPMI-1640 medium (Cat N° A1049101, Invitrogen) supplemented with: L-glutamine 200 mM, (Cat N° G7513, Sigma-Aldrich, St. Louis, MO) antibiotics 100× (Cat N° A5955, Sigma-Aldrich, St. Louis, MO) and 10% heat-inactivated foetal bovine serum (Cat N° SO1805, Linus). Cells were maintained at 37°C in an atmosphere of 5% CO2. Cultures were plated at a density of 12.5×10^4cells/ml in 40 ml culture bottles (25 cm^2) and passed every 2 days.
For the assessment of cell viability, HL60 cells were placed in 12 well culture plates (1×10^5 cells/ml) and treated for 72 h with increasing concentrations of borage seed oil and GLA. Cell viability was determined by the Trypan Blue dye exclusion test (T8154, Sigma-Aldrich, St. Louis, MO). Cells were counted by adding an aliquot of 10 µl of the culture to 10 µl of the Trypan Blue dye. The mix was counted under a light inverted microscope using a Neubauer chamber (AE30/31, Motic). Aliquots were taken after 24, 36, 48, 60 and 72 h incubation. […] Curves are expressed as the percentage of survival with respect to controls at 72 h of growth. […]

The subject of data set [4] is D. melanogaster. Description: Longevity assay (life span and health span). It counts as in vivo, Drosophila melanogaster. As to conditions: all assayed concentrations of GLA. How it is done: The F1 progeny from […]^3 parental strains produced by 24 h egg-laying in yeast was used. Longevity experiments were carried out at 25°C, following the procedure described by Chavous et al., 2001 [33]. Briefly, synchronised transheterozygous 72±12 h old larvae were washed in distilled water and separated into groups of 100 individuals in vials with a mixture of 0.85 g Drosophila Instant Medium and 4 ml of the different concentrations of the two substances selected. […] Three replicates were used during the complete life span for each control and concentration established. The number of survivors was counted and the medium renewed twice a week. In addition, the Kaplan-Meier estimates of the survival function for each concentration and respective control are plotted as survival curves. Statistical analyses and significance of the curves were assessed using the SPSS 15.0 statistics software (SPSS Inc. Headquarters, Chicago, IL, USA) using the Log-Rank (Mantel-Cox) method.

The test system of data set [5] is human hepatoma HepG2 cells (E9 cells). Further details: method as in PMID 9660301. Particulars: cited from earlier work.
Data set [6] concerns leukocytes (HL-60, Jurkat and Raji cells). On the set-up: method as in PMID 12489694. Particulars: cited from earlier work.

Read-outs that look alike come from different tables or passages of the source. Marks after values point to notes of the source that are not given here.

`CCCCC/C=C\C/C=C\C/C=C\CCCCC(=O)O` [GLA, all cis-6,9,12-octadecatrienoic acid]: the “Survival % Simple treatment” value in the data set on D. melanogaster [1] (GLA 8.9 mM (lowest concentration)) was 99%; in the data set on D. melanogaster [1] (GLA 8.9 mM (lowest concentration), listed as Gamma-linolenic acid) it was 99.25%; with D. melanogaster [1] (GLA 13 mM), 66.66*** %; in the data set with D. melanogaster [1] (GLA 22 mM), 39.25*** %; in the data set on D. melanogaster [1] (GLA 45 mM), 50.37*** %; in the data set on D. melanogaster [1] (GLA 90 mM) it was 20.74*** %. Moreover, the “Survival % Combined Treatment” value in the data set with D. melanogaster [1] (GLA 8.9 mM + 0.12 M hydrogen peroxide) is given as 48.88*** %; in the data set with D. melanogaster [1] (GLA 13 mM + 0.12 M hydrogen peroxide) it was 22.22*** %; with D. melanogaster [1] (GLA 22 mM + 0.12 M hydrogen peroxide), 39.25*** %; in the data set on D. melanogaster [1] (GLA 45 mM + 0.12 M hydrogen peroxide) it was 37.77*** %; in the data set on D. melanogaster [1] (GLA 90 mM + 0.12 M hydrogen peroxide) it was 32.59*** %. In the data set with D. melanogaster [1] (GLA, next higher concentration after the lowest (13 mM)), this molecule gave a decrease in survival of 66%. Besides, the “toxicity to D. melanogaster” value with D. melanogaster [1] (lowest concentration of GLA) was “non-toxicity”. For the same molecule, the “average toxicities (survival)” value in the data set with D. melanogaster [1] (plus hydrogen peroxide as a toxicant) stood at 31%; in the data set on D. melanogaster [1] (simple treatment), 55%. The “weighted average of induced spots/wing” value in the data set on D. melanogaster [2] (Drosophila melanogaster) turned out to be 0.23 spots/wing. Also, the “genotoxicity” value in the data set on D. melanogaster [2] is “non-genotoxic”. The “Mutation rate (Spots per wing) Large single spots (>2 cells) m = 5” value is given as 0.02 (1) spots per wing in the data set with D. melanogaster [3] (GLA 8.9 mM + H2O2 0.12 M); 0 spots per wing in the data set with D. melanogaster [3] (GLA 13 mM + H2O2 0.12 M); 0 spots per wing with D. melanogaster [3] (GLA 22 mM + H2O2 0.12 M); 0.03 (1) spots per wing in the data set with D. melanogaster [3] (GLA 45 mM + H2O2 0.12 M); 0.06 (1) spots per wing with D. melanogaster [3] (GLA 90 mM + H2O2 0.12 M). The “Mutation rate (Spots per wing) Small single spots (1–2 cells) m = 2” value was 0.3 (15) spots per wing in the data set with D. melanogaster [3] (GLA 8.9 mM + H2O2 0.12 M); 0.25 (3) spots per wing in the data set on D. melanogaster [3] (GLA 13 mM + H2O2 0.12 M); 0.39 (11) spots per wing with D. melanogaster [3] (GLA 22 mM + H2O2 0.12 M); 0.19 (5) spots per wing in the data set on D. melanogaster [3] (GLA 45 mM + H2O2 0.12 M); 0.18 (3) spots per wing with D. melanogaster [3] (GLA 90 mM + H2O2 0.12 M). For the same molecule, the “Mutation rate (Spots per wing) Total spots m = 2” value was 0.32 spots per wing in the data set with D. melanogaster [3] (GLA 8.9 mM + H2O2 0.12 M); 0.25 spots per wing in the data set with D. melanogaster [3] (GLA 13 mM + H2O2 0.12 M); 0.42 spots per wing in the data set with D. melanogaster [3] (GLA 22 mM + H2O2 0.12 M); 0.26 spots per wing with D. melanogaster [3] (GLA 45 mM + H2O2 0.12 M); 0.25 spots per wing with D. melanogaster [3] (GLA 90 mM + H2O2 0.12 M). Also, the “Mutation rate (Spots per wing) Twin spots m = 5” value in the data set with D. melanogaster [3] (GLA 8.9 mM + H2O2 0.12 M) is recorded as 0 spots per wing; in the data set with D. melanogaster [3] (GLA 13 mM + H2O2 0.12 M) it was 0 spots per wing; in the data set on D. melanogaster [3] (GLA 22 mM + H2O2 0.12 M), 0.03 (1) spots per wing; in the data set on D. melanogaster [3] (GLA 45 mM + H2O2 0.12 M), 0.03 (1) spots per wing; in the data set with D. melanogaster [3] (GLA 90 mM + H2O2 0.12 M), 0 spots per wing. In addition, the “% of inhibition” value in the data set with D. melanogaster [3] (GLA 8.9 mM + H2O2 0.12 M) was 37%; with D. melanogaster [3] (GLA 13 mM + H2O2 0.12 M), 51%; with D. melanogaster [3] (GLA 22 mM + H2O2 0.12 M) it was 17%; in the data set on D. melanogaster [3] (GLA 45 mM + H2O2 0.12 M), 49%; in the data set on D. melanogaster [3] (GLA 90 mM + H2O2 0.12 M), 51%. For the same molecule, the “antigenotoxicity” value in the data set on D. melanogaster [3] (compared to hydrogen peroxide) was “antimutagenic”. For the same molecule, the “inhibitory potential against hydrogen peroxide, weighted average” value in the data set on D. melanogaster [3] (over all concentrations) amounted to 38.1%. For the same molecule, in the data set with HL60 cells, the IC50 was 87 µM. Besides, the “effect on life span” value in the data set with D. melanogaster [4] is recorded as “decreased the mean survival time significantly”.

Regarding `CCCCC/C=C\C/C=C\C/C=C\C/C=C\CCCC(=O)O` [arachidonic acid], the “toxicity to E9 cells” value in data set [5] (pretreatment with 0.03 mM) is “significant toxicity”. In data set [6] (high concentrations), the “concentrations with necrotic effect” value is 400 to 1600 µM. Also, the “concentrations with apoptotic effect” value in data set [6] (low concentrations) is 10 to 400 µM.

As for `OO` [hydrogen peroxide], in the data set with D. melanogaster [1] (0.12 M hydrogen peroxide alone), the “Survival percentage for 0.12 M hydrogen peroxide alone treatments” value is reported as 84.44^(4) %. For the same molecule, in the data set with D. melanogaster [2], the “Mutation rate (Spots per wing) Large single spots (>2 cells) m = 5” value was 0.03 (12) spots per wing, the “Mutation rate (Spots per wing) Small single spots (1–2 cells) m = 2” value is 0.46 (126) spots per wing, the “Mutation rate (Spots per wing) Total spots m = 2” value is 0.51 spots per wing and the “Mutation rate (Spots per wing) Twin spots m = 5” value is 0.01 (3) spots per wing. Further, in the data set with D. melanogaster [2], the “N° of emerging adults” value is given as 328 and the Total spots diagnosis result is “+”. Besides, the Total spots diagnosis entry in the data set with D. melanogaster [3] (in vivo) is reported as “+”.

As to `CCCCCCCC/C=C\CCCCCCCC(=O)O` [oleic acid, cis-9 octadecenoic], in data set [5] (0.05 mM), the “toxicity to E9 cells” value is listed as “no significant toxicity”.
